Experimental data published in patent US20100087496A1, “NOVEL CINNAMIC AMIDE DERIVATIVES USEFUL AS ION CHANNEL MODULATORS” (NeuroSearch A/S, priority 2006, published 2010).

Target: T1, BK channels heterologously expressed in Xenopus laevis oocytes (Homo sapiens, UniProt Q12791)
T1 construct: expressed in transfected cells; host or cells: Xenopus laevis oocytes
Test: BK channel opening activity, two-electrode voltage clamp in Xenopus laevis oocytes
Type: cell-based
Settings: step from −40 mV to +30 mV
Experimental: In this example the BK channel opening activity of three cinnamic amide derivatives representative of the invention, i.e. Compound 22 (A), Compound 9 (B) and Compound 19 (C), is determined using BK channels heterologously expressed in Xenopus laevis oocytes.
The electrical current through the BK channel is measured conventional two-electrode voltage clamp. BK current is activated by repeated step protocols. In brief, this protocol goes from a resting membrane potential of −40 mV lasting for 5 seconds to a depolarised step to +30 mV lasting for 1 second. The protocol was repeated continuously.
Having reached a stable current level, Compound A (3 μM), Compound B (1 μM) and Compound C (30 μM) was added.

T1 sequence (Q12791 whole entry): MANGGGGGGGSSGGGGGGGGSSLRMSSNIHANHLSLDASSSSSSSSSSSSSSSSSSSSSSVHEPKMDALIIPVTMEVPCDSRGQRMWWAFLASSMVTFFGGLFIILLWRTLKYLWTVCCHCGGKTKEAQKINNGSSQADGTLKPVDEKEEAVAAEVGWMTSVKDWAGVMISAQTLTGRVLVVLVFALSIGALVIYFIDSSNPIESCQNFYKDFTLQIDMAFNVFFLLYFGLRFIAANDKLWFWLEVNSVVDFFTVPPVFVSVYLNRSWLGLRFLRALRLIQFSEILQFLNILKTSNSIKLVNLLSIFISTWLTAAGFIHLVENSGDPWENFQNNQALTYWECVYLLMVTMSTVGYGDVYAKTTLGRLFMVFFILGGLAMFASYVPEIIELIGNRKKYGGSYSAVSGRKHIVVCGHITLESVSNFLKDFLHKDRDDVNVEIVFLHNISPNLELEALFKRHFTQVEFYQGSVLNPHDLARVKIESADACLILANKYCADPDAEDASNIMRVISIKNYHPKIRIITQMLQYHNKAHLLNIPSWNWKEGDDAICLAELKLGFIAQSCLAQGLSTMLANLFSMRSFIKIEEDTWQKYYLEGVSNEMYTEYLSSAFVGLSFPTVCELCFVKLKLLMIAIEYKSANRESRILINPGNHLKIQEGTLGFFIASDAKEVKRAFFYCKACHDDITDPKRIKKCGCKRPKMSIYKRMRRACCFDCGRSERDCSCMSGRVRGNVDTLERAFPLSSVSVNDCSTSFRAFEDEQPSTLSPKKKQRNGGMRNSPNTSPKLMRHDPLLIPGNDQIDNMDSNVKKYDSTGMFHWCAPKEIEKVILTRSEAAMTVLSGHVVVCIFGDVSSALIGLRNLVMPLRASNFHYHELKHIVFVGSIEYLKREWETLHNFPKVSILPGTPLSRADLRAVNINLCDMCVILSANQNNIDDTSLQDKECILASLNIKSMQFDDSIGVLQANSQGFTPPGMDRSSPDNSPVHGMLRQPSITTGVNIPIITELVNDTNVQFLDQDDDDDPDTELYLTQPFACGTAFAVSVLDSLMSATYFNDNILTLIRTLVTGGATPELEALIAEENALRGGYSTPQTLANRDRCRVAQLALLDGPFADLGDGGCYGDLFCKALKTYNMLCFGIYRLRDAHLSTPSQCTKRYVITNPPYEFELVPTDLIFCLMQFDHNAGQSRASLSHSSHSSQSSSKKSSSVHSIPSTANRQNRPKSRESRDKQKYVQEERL

Compound: O=C(/C=C/c1ccc2ccccc2c1)Nc1cc(Cl)ccc1-c1nnn[nH]1 [Compound 9, (E)-N-[5-Chloro-2-(1H-tetrazol-5-yl)-3-phenyl]-3-naphthalen-2-yl-acrylamide]
- current activated by depolarisation (BK current) (1 μM): marked increase

Compound: O=C(/C=C/c1ccc2ccccc2c1)Nc1cc(Cl)ccc1S(=O)(=O)O [Compound 19, 4-Chloro-2-((E)-3-naphthalen-2-yl-acryloylamino)-benzenesulfonic acid]
- current activated by depolarisation (BK current) (30 μM): marked increase

Compound: O=C(Nc1cc(Cl)ccc1-c1nnn[nH]1)C1=Cc2cc(Cl)ccc2OC1 [Compound 22, 6-Chloro-2H-chromene-3-carboxylic acid [5-chloro-2-(1H-tetrazol-5-yl)-phenyl]-amide]
- current activated by depolarisation (BK current) (3 μM): marked increase
